Experimental data taken from patent US11617777B2, “Cytotoxic and anti-mitotic compounds, and methods of using the same” (ZYMEWORKS BC INC., priority 2013, dated 2023).
Read-outs that look alike come from different tables or passages of the source.

Tested on: Jurkat cells
Test: Cytotoxicity of compounds, CellTiter-Glo
Type: cell-based, Human
Conditions: read-out: EC50
Procedure, shortened: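 HCC1954 plated at 2500 cells/100 uL and attached overnight; Jurkat plated at 2500 cells/100 uL on the day of dosing. Cells exposed to 8-step 1:3 compound titrations for three nights at 37° C./5% CO2, in triplicate. CellTiter-Glo luminescence converted to % cytotoxicity versus medium-only control; EC50 by three-parameter nonlinear regression.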

[1] = Homo sapiens, Jurkat, Table 6, Compound Cytotoxicity on Jurkat
[2] = Homo sapiens, Jurkat, Table 3, Cytotoxicity of Compounds on Jurkat Cells
[3] = Homo sapiens, Jurkat, Table 7, Cytotoxicity on Jurkat
[4] = Table 6, Compound Cytotoxicity on Jurkat

Structure (SMILES) | EC50 [1] | EC50 [2] | also measured
CN[C@H](C(=O)N[C@H](C(=O)N(C)[C@H](/C=C(\C)C(=O)NS(=O)(=O)Cc1ccc(Cl)c(Cl)c1)C(C)C)C(C)(C)C)C(C)(C)c1ccccc1 [Compound 104, (S,E)-N-(3,4-dichlorobenzylsulfonyl)-2,5-dimethyl-4-((S)—N,3,3-trimethyl-2-((S)-3-methyl-2-(methylamino)-3-phenylbutanamido)butanamido)hex-2-enamide] | 0.272 nM |  | 
CN[C@H](C(=O)N[C@H](C(=O)N(C)[C@H](/C=C(\C)C(=O)NS(=O)(=O)Cc1ccccc1)C(C)C)C(C)(C)C)C(C)(C)c1ccc(OCCO)cc1 [Compound 94, (S,E)-N-(benzylsulfonyl)-4-((S)-2-((S)-3-(4-(2-hydroxyethoxy)phenyl)-3-methyl-2-(methylamino)butanamido)-N,3,3-trimethylbutanamido)-2,5-dimethylhex-2-enamide] | 1.67 nM |  | 
CN[C@H](C(=O)N[C@H](C(=O)N(C)[C@H](/C=C(\C)C(=O)NS(=O)(=O)c1c(C(C)C)cc(C(C)C)cc1C(C)C)C(C)C)C(C)(C)C)C(C)(C)c1ccccc1 [Compound 15, (S,E)-2,5-dimethyl-N-(2,4,6-triisopropylphenylsulfonyl)-4-((S)—N,3,3-trimethyl-2-((S)-3-methyl-2-(methylamino)-3-phenylbutanamido)butanamido)hex-2-enamide] |  | 7.6 nM | 
CN[C@H](C(=O)N[C@H](C(=O)N(C)[C@H](/C=C(\C)C(=O)NS(=O)(=O)c1ccc(N)c(C(F)(F)F)c1)C(C)C)C(C)(C)C)C(C)(C)c1ccccc1 [Compound 114, (S,E)-N-(4-amino-3-(trifluoromethyl)phenylsulfonyl)-2,5-di methyl-4-((S)—N,3,3-trimethyl-2-((S)-3-methyl-2-(methylamino)-3-phenylbutanamido)butanamido)hex-2-enamide] | 0.056 nM |  | EC50 [3]: 0.056 nM
CN[C@H](C(=O)N[C@H](C(=O)N(C)[C@H](/C=C(\C)C(=O)NS(=O)(=O)c1ccccc1)C(C)C)C(C)(C)C)C(C)(C)c1ccccc1 [Compound 25, (S,E)-2,5-dimethyl-N-(phenylsulfonyl)-4-((S)—N,3,3-trimethyl-2-((S)-3-methyl-2-(methylamino)-3-phenylbutanamido)butanamido)hex-2-enamide] |  | 0.05 nM | 
CN[C@H](C(=O)N[C@H](C(=O)N(C)[C@H](/C=C(\C)C(=O)NS(=O)(=O)c1ccc(O)cc1)C(C)C)C(C)(C)C)C(C)(C)c1ccccc1 [Compound 51, (S,E)-N-(4-hydroxyphenylsulfonyl)-2,5-dimethyl-4-((S)—N,3,3-trimethyl-2-((S)-3-methyl-2-(methylamino)-3-phenylbutanamido)butanamido)hex-2-enamide] |  | 0.247 nM | 
CN[C@H](C(=O)N[C@H](C(=O)N(C)[C@H](/C=C(\C)C(=O)NS(=O)(=O)Cc1ccccc1[N+](=O)[O-])C(C)C)C(C)(C)C)C(C)(C)c1ccccc1 [Compound 72, (S,E)-2,5-dimethyl-N-(2-nitrobenzylsulfonyl)-4-((S)—N,3,3-trimethyl-2-((S)-3-methyl-2-(methylamino)-3-phenylbutanamido)butanamido)hex-2-enamide] |  |  | EC50 [4]: 0.531 nM
CN[C@H](C(=O)N[C@H](C(=O)N(C)[C@H](/C=C(\C)C(=O)NS(=O)(=O)Cc1ccc(CNC(=O)C(F)(F)F)cc1)C(C)C)C(C)(C)C)C(C)(C)c1ccccc1 [Compound 76, (S,E)-2,5-dimethyl-N-(4-((2,2,2-trifluoroacetamido)methyl)benzylsulfonyl)-4-((S)—N,3,3-trimethyl-2-((S)-3-methyl-2-(methylamino)-3-phenylbutanamido)butanamido)hex-2-enamide] |  | 0.328 nM | 
CN[C@H](C(=O)N[C@H](C(=O)N(C)[C@H](/C=C(\C)C(=O)NS(=O)(=O)c1ccc(N)c(C)c1)C(C)C)C(C)(C)C)C(C)(C)c1ccccc1 [Compound 111, (S,E)-N-(4-amino-3-methylphenylsulfonyl)-2,5-dimethyl-4-((S)—N,3,3-trimethyl-2-((S)-3-methyl-2-(methylamino)-3-phenylbutanamido)butanamido)hex-2-enamide] | ~0.118 nM |  | EC50 [3]: 0.12 nM
CN[C@H](C(=O)N[C@H](C(=O)N(C)[C@H](/C=C(\C)C(=O)NS(=O)(=O)Cc1ccccc1)C(C)C)C(C)(C)C)C(C)(C)c1cccc(OC)c1 [Compound 93, (S,E)-N-(benzylsulfonyl)-4-((S)-2-((S)-3-(3-methoxyphenyl)-3-methyl-2-(methylamino)butanamido)-N,3,3-trimethylbutanamido)-2,5-dimethylhex-2-enamide] | 0.196 nM |  | 
CN[C@H](C(=O)N[C@H](C(=O)N(C)[C@H](/C=C(\C)C(=O)NS(=O)(=O)Cc1cccc(C(F)(F)F)c1)C(C)C)C(C)(C)C)C(C)(C)c1ccccc1 [Compound 102, (S,E)-2,5-dimethyl-N-(3-(trifluoromethyl)benzylsulfonyl)-4-((S)—N,3,3-trimethyl-2-((S)-3-methyl-2-(methylamino)-3-phenylbutanamido)butanamido)hex-2-enamide] | 0.289 nM |  | 
CN[C@H](C(=O)N[C@H](C(=O)N(C)[C@H](/C=C(\C)C(=O)NS(=O)(=O)Cc1ccccc1C#N)C(C)C)C(C)(C)C)C(C)(C)c1ccccc1 [Compound 105, (S,E)-N-(2-cyanobenzylsulfonyl)-2,5-dimethyl-4-((S)—N,3,3-trimethyl-2-((S)-3-methyl-2-(methylamino)-3-phenylbutanamido)butanamido)hex-2-enamide] | 0.731 nM |  | EC50 [4]: 0.753 nM
CN[C@H](C(=O)N[C@H](C(=O)N(C)[C@H](/C=C(\C)C(=O)NS(=O)(=O)c1ccc(OC(F)(F)F)cc1)C(C)C)C(C)(C)C)C(C)(C)c1ccccc1 [Compound 13, (S,E)-2,5-dimethyl-N-(4-(trifluoromethoxy)phenylsulfonyl)-4-((S)—N,3,3-trimethyl-2-((S)-3-methyl-2-(methylamino)-3-phenylbutanamido)butanamido)hex-2-enamide] | 1.51 nM | 0.038 nM | 
CN[C@H](C(=O)N[C@H](C(=O)N(C)[C@H](/C=C(\C)C(=O)NS(=O)(=O)Cc1ccc(Cl)cc1)C(C)C)C(C)(C)C)C(C)(C)c1ccccc1 [Compound 66, (S,E)-N-(4-chlorobenzylsulfonyl)-2,5-dimethyl-4-((S)—N,3,3-trimethyl-2-((S)-3-methyl-2-(methylamino)-3-phenylbutanamido)butanamido)hex-2-enamide] | 0.145 nM |  | 
CN[C@H](C(=O)N[C@H](C(=O)N(C)[C@H](/C=C(\C)C(=O)NS(=O)(=O)Cc1ccccc1)C(C)C)C(C)(C)C)C(C)(C)c1ccc(OCCN)cc1 [Compound 96, (S,E)-4-((S)-2-((S)-3-(4-(2-aminoethoxy)phenyl)-3-methyl-2-(methylamino)butanamido)-N,3,3-trimethylbutanamido)-N-(benzylsulfonyl)-2,5-dimethylhex-2-enamide] | 10.3 nM |  | 
CN[C@H](C(=O)N[C@H](C(=O)N(C)[C@H](/C=C(\C)C(=O)NS(=O)(=O)c1ccccc1[N+](=O)[O-])C(C)C)C(C)(C)C)C(C)(C)c1ccccc1 [Compound 19, (S,E)-2,5-dimethyl-N-(2-nitrophenylsulfonyl)-4-((S)—N,3,3-trimethyl-2-((S)-3-methyl-2-(methylamino)-3-phenylbutanamido)butanamido)hex-2-enamide] |  | 0.152 nM | 
CN[C@H](C(=O)N[C@H](C(=O)N(C)[C@H](/C=C(\C)C(=O)NS(=O)(=O)c1ccc(N)c2c1CCCC2)C(C)C)C(C)(C)C)C(C)(C)c1ccccc1 [Compound 110, (S,E)-N-(4-amino-5,6,7,8-tetrahydronaphthalen-1-ylsulfonyl)-2,5-dimethyl-4-((S)—N,3,3-trimethyl-2-((S)-3-methyl-2-(methylamino)-3-phenylbutanamido)butanamido)hex-2-enamide] | 0.031 nM |  | EC50 [3]: 0.031 nM
CN[C@H](C(=O)N[C@H](C(=O)N(C)[C@H](/C=C(\C)C(=O)NS(=O)(=O)Cc1ccccc1)C(C)C)C(C)(C)C)C(C)(C)c1ccc(N=[N+]=[N-])cc1 [Compound 42, (S,E)-4-((S)-2-((S)-3-(4-azidophenyl)-3-methyl-2-(methylamino)butanamido)-N,3,3-trimethylbutanamido)-N-(benzylsulfonyl)-2,5-dimethylhex-2-enamide] |  | 0.165 nM | 
CN[C@H](C(=O)N[C@H](C(=O)N(C)[C@H](/C=C(\C)C(=O)NS(=O)(=O)c1ccc2ccccc2c1)C(C)C)C(C)(C)C)C(C)(C)c1ccccc1 [Compound 30, (S,E)-2,5-dimethyl-N-(naphthalen-2-ylsulfonyl)-4-((S)—N,3,3-trimethyl-2-((S)-3-methyl-2-(methylamino)-3-phenylbutanamido)butanamido)hex-2-enamide] |  | 0.109 nM | 
CN[C@H](C(=O)N[C@H](C(=O)N(C)[C@H](/C=C(\C)C(=O)NS(=O)(=O)Cc1ccc(C2(N)CC2)cc1)C(C)C)C(C)(C)C)C(C)(C)c1ccccc1 [Compound 58, (S,E)-N-(4-(1-aminocyclopropyl)benzylsulfonyl)-2,5-dimethyl-4-((S)—N,3,3-trimethyl-2-((S)-3-methyl-2-(methylamino)-3-phenylbutanamido)butanamido) hex-2-enamide] |  | 0.816 nM | 
CN[C@H](C(=O)N[C@H](C(=O)N(C)[C@H](/C=C(\C)C(=O)NS(=O)(=O)CCc1ccc([N+](=O)[O-])cc1)C(C)C)C(C)(C)C)C(C)(C)c1ccccc1 [Compound 73, (S,E)-2,5-dimethyl-N-(4-nitrophenethylsulfonyl)-4-((S)—N,3,3-trimethyl-2-((S)-3-methyl-2-(methylamino)-3-phenylbutanamido)butanamido)hex-2-enamide] | 2.68 nM |  | 
CN[C@H](C(=O)N[C@H](C(=O)N(C)[C@H](/C=C(\C)C(=O)NS(=O)(=O)c1ccccc1NC(=O)C(F)(F)F)C(C)C)C(C)(C)C)C(C)(C)c1ccccc1 [Compound 97, (S,E)-2,5-dimethyl-N-(2-(2,2,2-trifluoroacetamido)phenylsulfonyl)-4-((S)—N,3,3-trimethyl-2-((S)-3-methyl-2-(methylamino)-3-phenylbutanamido)butanamido)hex-2-enamide] | 0.307 nM | 1.62 nM | 
